Laboratory results from patent publication US9884130B2, “Compositions for delivery of oral comfort sensations” (The Procter & Gamble Company, priority 2013, dated 2018).
Where a name gives a salt, the structure may show the parent alone. Read-outs that look alike come from different tables or passages of the source. Blank lines part the entries; values can stand above or below the compound they belong to.

Legend:
[1] = target: T1, mouse TREK-1 (mTREK-1t) (Mus musculus, UniProt P97438); assay: FLIPR membrane potential assay in HEK-293 cells stably transfected with mTREK-1t; format: cell-based
T1 construct: (mTREK-1t) by Capital Biosciences (Rockville, Md.)
T1 sequence (P97438 with tags, fused parts or gaps limits assumed): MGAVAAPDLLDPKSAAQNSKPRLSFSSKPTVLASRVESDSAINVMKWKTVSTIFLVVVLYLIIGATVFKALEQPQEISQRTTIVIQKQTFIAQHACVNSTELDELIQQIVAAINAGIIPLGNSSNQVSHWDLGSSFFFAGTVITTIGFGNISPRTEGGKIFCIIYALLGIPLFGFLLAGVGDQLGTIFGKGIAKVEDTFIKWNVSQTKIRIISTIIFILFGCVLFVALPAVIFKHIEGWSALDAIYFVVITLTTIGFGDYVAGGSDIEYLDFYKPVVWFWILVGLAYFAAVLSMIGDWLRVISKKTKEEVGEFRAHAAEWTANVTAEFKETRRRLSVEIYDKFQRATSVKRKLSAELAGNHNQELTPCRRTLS

[2] = concentration level where the cooling effect can be clearly recognized; cited from earlier work
[3] = HEK293, read-out: Fluorescence per Sample concentration (percent activity relative to potassium nitrate)
[4] = HEK293, sample concentration 50 μM, relative to 50 mM potassium nitrate, read-out: Fluorescence per Sample concentration (percent activity relative to potassium nitrate)
[5] = HEK293, sample concentration 100 μM, relative to 50 mM potassium nitrate, read-out: Fluorescence per Sample concentration (percent activity relative to potassium nitrate)
[6] = HEK293, sample concentration 200 μM, relative to 50 mM potassium nitrate, read-out: Fluorescence per Sample concentration (percent activity relative to potassium nitrate)
[7] = HEK293, Sample Conc. 0.0005%, read-out: Activity Level (percentage of activity relative to 100% with 50 mM potassium nitrate)
[8] = HEK293, Sample Conc. 0.0010%, read-out: Activity Level (percentage of activity relative to 100% with 50 mM potassium nitrate)
[9] = HEK293, Sample Conc. 0.0021%, read-out: Activity Level (percentage of activity relative to 100% with 50 mM potassium nitrate)
[10] = HEK293, Sample Conc. 0.0042%, read-out: Activity Level (percentage of activity relative to 100% with 50 mM potassium nitrate)
[11] = HEK293, Sample Conc. 0.0083%, read-out: Activity Level (percentage of activity relative to 100% with 50 mM potassium nitrate)
[12] = HEK293, Sample Conc. 0.0167%, read-out: Activity Level (percentage of activity relative to 100% with 50 mM potassium nitrate)
[13] = HEK293, Sample Conc. 0.0330%, read-out: Activity Level (percentage of activity relative to 100% with 50 mM potassium nitrate)
[14] = HEK293, read-out: Activity Level (percentage of activity relative to 100% with 50 mM potassium nitrate)
[15] = sample concentration 50 μM, relative to 50 mM potassium nitrate
[16] = sample concentration 100 μM, relative to 50 mM potassium nitrate
[17] = sample concentration 200 μM, relative to 50 mM potassium nitrate

Compound: CC=Cc1ccc(OC)c(OC)c1 [1,2-Dimethoxy 4-propenyl benzene]
activation at 50 µM [1, 3]: 5.19%
activation at 100 µM [1, 3]: 10.5%
activation at 200 µM [1, 3]: 29.1%

Compound: CC(C)CC=C(C=O)C(C)C [2-Isopropyl-5-methyl-2-hexenal]
activation at 50 µM [1, 4]: 11.1%
activation at 100 µM [1, 5]: 21.1%
activation at 200 µM [1, 6]: 46.3%
activation at 400 µM ([1]; HEK293, sample concentration 400 μM, relative to 50 mM potassium nitrate, read-out: Fluorescence per Sample concentration (percent activity relative to potassium nitrate)): ≥ 50%

Compound: Oc1ccccc1-c1ccccc1 [2-Phenylphenol]
activation at 50 µM [1, 3]: 0.35%
activation at 100 µM [1, 3]: 0.85%
activation at 200 µM [1, 3]: 12.9%
activation at 400 µM [1, 3]: ≥ 50%

Compound: CCCCC(CC)CCC(=O)O (centres unmarked) [4-Ethyloctanoic Acid]
activation at 50 µM [1, 4]: 31%
activation at 100 µM [1, 5]: 44.6%
activation at 200 µM [1, 6]: 77.3%

Compound: CC(C)C=C(C=O)c1ccccc1 [4-Methyl-2-phenyl-2 Pentenal]
activation at 50 µM [1, 4]: 16.5%
activation at 100 µM [1, 5]: 27.1%
activation at 200 µM [1, 6]: 52.1%

Compound: CCCCCCCCOC(=O)CCCCC(=O)OCCCCCCCC [Dioctyl Adipate]
activity on TREK-1 compared with potassium nitrate [1]: higher activity on TREK-1 than potassium nitrate
activation at 0.0005 % [1, 14]: 8.93%
activation at 0.001 % [1, 14]: 13.7%
activation at 0.0021 % [1, 14]: 18.1%
activation at 0.0042 % [1, 14]: 22.9%
activation at 0.0083 % [1, 14]: 38.9%
activation at 0.0167 % [1, 14]: > 70%
activation at 0.033 % [1, 14]: 132%

Compound: CC(C)[C@@H]1CC[C@@H](C)C[C@H]1O [L- Menthol]
cooling threshold [2]: about 800 ppb

Compound: O=[N+]([O-])[O-].[K+] [Potassium Nitrate, reference compound]
Activity Level (percentage of activity relative to 100% with 50 mM potassium nitrate) [1]: 100%
Fluorescence per Sample concentration (percent activity relative to potassium nitrate) [1]: 100%
percentage of TREK-1 activity relative to potassium nitrate [1]: 100%

Compound: CC(C)[C@@H]1CC[C@@H](C)C[C@@H]1O [Sample 1-neomenthol, 1-neomenthol]
cooling threshold [2]: about 3,000 ppb

Compound: CC(C)[C@@H]1CC[C@@H](C)C[C@@H]1O [d-neomenthol]
cooling threshold [2]: about 25,000 ppb

Second part, led by results:

activation at 50 µM [1, 4]: 24.8%
activation at 100 µM [1, 5]: 38.5%
activation at 200 µM [1, 6]: 79.9%
Compound: CCCCCC(C)CCC(=O)O (centres unmarked) [4-Methylnonanoic acid]

activation at 0.0005 % [1, 7]: 2.69%
activation at 0.001 % [1, 8]: 0.48%
activation at 0.0021 % [1, 9]: 3.06%
activation at 0.0042 % [1, 10]: 2.5%
activation at 0.0083 % [1, 11]: 5.89%
activation at 0.0167 % [1, 12]: 14.1%
activation at 0.033 % [1, 13]: 24%
Compound: CCCCOC(=O)CC(CC(=O)OCCCC)(OC(C)=O)C(=O)OCCCC [Acetyl Tributyl Citrate]

Activity Level (percentage of activity relative to 100% with 50 mM potassium nitrate) ([1]; Sample Conc. 0.0005%): 5.92%
Activity Level (percentage of activity relative to 100% with 50 mM potassium nitrate) ([1]; Sample Conc. 0.0010%): 13.39%
Activity Level (percentage of activity relative to 100% with 50 mM potassium nitrate) ([1]; Sample Conc. 0.0021%): 20.49%
Activity Level (percentage of activity relative to 100% with 50 mM potassium nitrate) ([1]; Sample Conc. 0.0042%): 26.65%
Activity Level (percentage of activity relative to 100% with 50 mM potassium nitrate) ([1]; Sample Conc. 0.0083%): 43.09%
Activity Level (percentage of activity relative to 100% with 50 mM potassium nitrate) ([1]; Sample Conc. 0.0167%): 84.83%
Activity Level (percentage of activity relative to 100% with 50 mM potassium nitrate) ([1]; Sample Conc. 0.0330%): 109.75%
Compound: CCCCC(CC)COP(=O)(O)OCC(CC)CCCC (centres unmarked) [Bis (2-ethyl hexyl) Phosphate]
activity on TREK-1 compared with potassium nitrate ([1]; 0.033% Sample concentration vs 50 mM (0.505%) potassium nitrate): higher activity on TREK-1 than potassium nitrate

activation at 0.0005 % [1, 7]: 1.31%
activation at 0.001 % [1, 8]: 1.38%
activation at 0.0021 % [1, 9]: 3.43%
activation at 0.0042 % [1, 10]: 3.56%
activation at 0.0083 % [1, 11]: 6.59%
activation at 0.0167 % [1, 12]: 14.8%
activation at 0.033 % [1, 13]: 30.4%
Compound: CC(C)OC(=O)CCCCC(=O)OC(C)C [Diisopropyl Adipate]

activation at 0.0005 % [1, 7]: 0%
activation at 0.001 % [1, 8]: 0%
activation at 0.0021 % [1, 9]: 0%
activation at 0.0042 % [1, 10]: 0%
activation at 0.0083 % [1, 11]: 0.51%
activation at 0.0167 % [1, 12]: 2.66%
activation at 0.033 % [1, 13]: 12.2%
Compound: CCCOC(=O)CCCCC(=O)OCCC [Dipropyl Adipate]

percentage of TREK-1 activity relative to potassium nitrate ([1]; Sample Concentration 0.0005%): 2.35%
percentage of TREK-1 activity relative to potassium nitrate ([1]; Sample Concentration 0.0010%): 2.33%
percentage of TREK-1 activity relative to potassium nitrate ([1]; Sample Concentration 0.0021%): 2.66%
percentage of TREK-1 activity relative to potassium nitrate ([1]; Sample Concentration 0.0042%): 4.94%
percentage of TREK-1 activity relative to potassium nitrate ([1]; Sample Concentration 0.0083%): 8.31%
percentage of TREK-1 activity relative to potassium nitrate ([1]; Sample Concentration 0.0167%): 17.4%
percentage of TREK-1 activity relative to potassium nitrate ([1]; Sample Concentration […]): 29.43%
Compound: COC(=O)c1ccccc1O [Methyl Salicylate]

percentage of TREK-1 activity relative to potassium nitrate ([1]; Sample Concentration 0.0005%): 4.57%
percentage of TREK-1 activity relative to potassium nitrate ([1]; Sample Concentration 0.0010%): 4.82%
percentage of TREK-1 activity relative to potassium nitrate ([1]; Sample Concentration 0.0021%): 3.86%
percentage of TREK-1 activity relative to potassium nitrate ([1]; Sample Concentration 0.0042%): 4.09%
percentage of TREK-1 activity relative to potassium nitrate ([1]; Sample Concentration 0.0083%): 6.73%
percentage of TREK-1 activity relative to potassium nitrate ([1]; Sample Concentration 0.0167%): 31.4%
percentage of TREK-1 activity relative to potassium nitrate ([1]; Sample Concentration […]): 65.22%
Compound: Cc1ccc(C(C)C)c(O)c1 [Thymol]

activation at 0.0005 % [1, 7]: 4.06%
activation at 0.001 % [1, 8]: 1.7%
activation at 0.0021 % [1, 9]: 2.98%
activation at 0.0042 % [1, 10]: 3.67%
activation at 0.0083 % [1, 11]: 6.17%
activation at 0.0167 % [1, 12]: 13.4%
activation at 0.033 % [1, 13]: 17.2%
Compound: CCOC(=O)CC(O)(CC(=O)OCC)C(=O)OCC [Triethyl Citrate]

Fluorescence per Sample concentration (percent activity relative to potassium nitrate) [1, 15]: 1.77%
Fluorescence per Sample concentration (percent activity relative to potassium nitrate) [1, 16]: 3.41%
Fluorescence per Sample concentration (percent activity relative to potassium nitrate) [1, 17]: 18.74%
Compound: CCCCCCCCC1CCC(=O)O1 (centres unmarked) [gamma-Dodecalactone]

Fluorescence per Sample concentration (percent activity relative to potassium nitrate) [1, 15]: 3.21%
Fluorescence per Sample concentration (percent activity relative to potassium nitrate) [1, 16]: 3.54%
Fluorescence per Sample concentration (percent activity relative to potassium nitrate) [1, 17]: 9.82%
Fluorescence per Sample concentration (percent activity relative to potassium nitrate) ([1]; sample concentration 400 μM, relative to 50 mM potassium nitrate): 15.89%
Compound: CCCCCCCCCCC1CCC(=O)O1 (centres unmarked) [gamma-Tetradecalactone]

percentage of TREK-1 activity relative to potassium nitrate ([1]; Sample Concentration 0.0005%): 1.85%
percentage of TREK-1 activity relative to potassium nitrate ([1]; Sample Concentration 0.0010%): 0.97%
percentage of TREK-1 activity relative to potassium nitrate ([1]; Sample Concentration 0.0021%): 2.7%
percentage of TREK-1 activity relative to potassium nitrate ([1]; Sample Concentration 0.0042%): 2.03%
percentage of TREK-1 activity relative to potassium nitrate ([1]; Sample Concentration 0.0083%): 9.51%
percentage of TREK-1 activity relative to potassium nitrate ([1]; Sample Concentration 0.0167%): 24.1%
percentage of TREK-1 activity relative to potassium nitrate ([1]; Sample Concentration […]): 98.65%
Compound: L-Carvone
